Experimental data reported in patent US8133911B2, “(R)-4-(heteroaryl) phenylethyl derivatives and pharmaceutical compositions containing them” (Dompe S.p.A, priority 2007, dated 2012).
Like-named read-outs stand apart in the source and are kept apart here.

Tested on: PMNs C5a induced chemotaxis
Experiment: Inhibition of C5a-induced chemotaxis of human PMNs
Format: cell-based
Conditions: 1 h, read-out: C5a (% inhibition at 10^−8 M)
Method: The compounds prepared in Example 2 were evaluated in vitro for their ability to inhibit chemotaxis of polymorphonucleate leukocytes (hereinafter referred to as PMNs) and monocytes induced by the fractions of the complement C5a and C5a-desArg. For this purpose, to isolate the PMNs from heparinized human blood, taken from healthy adult volunteers, mononucleates were removed by means of sedimentation on dextran (according to the procedure disclosed by W. J. Ming et al., J. Immunol., 138, 1469, 1987) and red blood cells by a hypotonic solution. The cell vitality was calculated by exclusion with Trypan blue, whilst the ratio of the circulating polymorphonucleates was estimated on the cytocentrifugate after staining with Diff Quick.
Human recombinant fractions C5a and C5a-desArg (Sigma) were used as stimulating agents in the chemotaxis experiments, giving practically identical results.
The lyophilized C5a was dissolved in a volume of HBSS containing 0.2% bovin serum albumin BSA so thus to obtain a stock solution having a concentration of 10^−5 M to be diluted in HBSS to a concentration of 10^−9 M, for the chemotaxis assays.
In the chemotaxis experiments, the PMNs were incubated with the compounds of the invention of formula (I) for 15′ at 37° C. in an atmosphere containing 5% CO2. The chemotactic activity of the C5a was evaluated on human circulating polymorphonucleates (PMNs) resuspended in HBSS at a concentration of 1.5×10^6 PMNs per ml. During the chemotaxis assay (according to W. Falket et al., J. Immunol. Methods, 33, 239, 1980) PVP-free filters with a porosity of 5 μm and microchambers suitable for replication were used.
The compounds of Example 2 were evaluated at a concentration ranging between 10^−7 and 10^−10 M; for this purpose they were added, at the same concentration, both to the lower pores and the upper pores of the microchamber. The wells in the lower part contain the solution of C5a or the simple carrier, those in the upper part contain the suspension of PMNs.
Inhibition of C5a-induced chemotactic activity by the individual compounds was evaluated by incubating the microchamber for the chemotaxis for 60 min at 37° C. in an atmosphere containing 5% CO2.

[1] = compound 10^−8 M, human PMNs, C5a 10^−9 M, 60 min at 37° C.

Row | SMILES | inhibition at 0.01 µM [1] | inhibition at 0.01 µM (Homo sapiens)
1 | C[C@H](c1ccc(Nc2nc(C(F)(F)F)cs2)cc1)c1nnn[nH]1 [Compound 1, N-{4-[(1R)-1-(1H-tetrazol-5-yl)ethyl]phenyl}-4-(trifluoromethyl)-1,3-thiazol-2-amine] | 60 ± 1% | –
2 | Cc1csc(Nc2ccc([C@@H](C)c3nnn[nH]3)cc2)n1 [Compound 2, 4-methyl-N-{4-[(1R)-1-(1H-tetrazol-5-yl)ethyl]phenyl}-1,3-thiazol-2-amine] | 45 ± 3% | –
3 | C[C@H](c1ccc(Nc2nc(C(C)(C)C)cs2)cc1)c1nnn[nH]1 [Compound 3, 4-tert-butyl-N-{4-[(1R)-1-(1H-tetrazol-5-yl)ethyl]phenyl}-1,3-thiazol-2-amine] | 42 ± 8% | –
4 | C[C@H](c1ccc(Nc2nccs2)cc1)c1nnn[nH]1 [Compound 4, N-{4-[(1R)-1-(1H-tetrazol-5-yl)ethyl]phenyl}-1,3-thiazol-2-amine] | 39 ± 3% | –
5 | C[C@H](c1ccc(Nc2nc(C(F)(F)F)co2)cc1)c1nnn[nH]1 [Compound 5, N-{4-[(1R)-1-(1H-tetrazol-5-yl)ethyl]phenyl}-4-(trifluoromethyl)-1,3-oxazol-2-amine] | 55 ± 1% | –
6 | Cc1coc(Nc2ccc([C@@H](C)c3nnn[nH]3)cc2)n1 [Compound 6, 4-methyl-N-{4-[(1R)-1-(1H-tetrazol-5-yl)ethyl]phenyl}-1,3-oxazol-2-amine] | 51 ± 7% | –
7 | C[C@H](c1ccc(Nc2nc(C(F)(F)F)cs2)cc1)c1ccnn1O [Compound 7, 5-[(1R)-1-(4-{[4-(trifluoromethyl)-1,3-thiazol-2-yl]amino}phenyl)ethyl]-1H-pyrazol-1-ol] | 38 ± 6% | –
8 | Cc1cnn(O)c1[C@H](C)c1ccc(Nc2nc(C(F)(F)F)cs2)cc1 [Compound 8, 4-methyl-5-[(1R)-1-(4-{[4-(trifluoromethyl)-1,3-thiazol-2-yl]amino}phenyl)ethyl]-1H-pyrazol-1-ol] | 48 ± 5% | –
9 | C[C@H](c1ccc(Nc2nc(C(F)(F)F)cs2)cc1)c1cnnn1O [Compound 9, 5-[(1R)-1-(4-{[4-(trifluoromethyl)-1,3-thiazol-2-yl]amino}phenyl)ethyl]-1H-1,2,3-triazol-1-ol] | 44 ± 1% | –
10 | C[C@H](c1ccc(Nc2nc(C(F)(F)F)cs2)cc1)c1cc(O)no1 [Compound 10, 5-[(1R)-1-(4-{[4-(trifluoromethyl)-1,3-thiazol-2-yl]amino}phenyl)ethyl]isoxazol-3-ol] | 56 ± 1% | –
11 | Cc1c(O)noc1[C@H](C)c1ccc(Nc2nc(C(F)(F)F)cs2)cc1 [Compound 11, 4-methyl-5-[(1R)-1-(4-{[4-(trifluoromethyl)-1,3-thiazol-2-yl]amino}phenyl)ethyl]isoxazol-3-ol] | – | 45 ± 4%
12 | C[C@H](c1ccc(Nc2nc(C(F)(F)F)cs2)cc1)c1cc(O)ns1 [Compound 12, 5-[(1R)-1-(4-{[4-(trifluoromethyl)-1,3-thiazol-2-yl]amino}phenyl)ethyl]isothiazol-3-ol] | 45 ± 3% | –
13 | C[C@H](c1ccc(Nc2nc(C(F)(F)F)cs2)cc1)c1nonc1O [Compound 13, 4-[(1R)-1-(4-{[4-(trifluoromethyl)-1,3-thiazol-2-yl]amino}phenyl)ethyl]-1,2,5-oxadiazol-3-ol] | 51 ± 4% | –
14 | C[C@H](c1ccc(Nc2nc(C(F)(F)F)cs2)cc1)c1nsnc1O [Compound 14, 4-[(1R)-1-(4-{[4-(trifluoromethyl)-1,3-thiazol-2-yl]amino}phenyl)ethyl]-1,2,5-thiadiazol-3-ol] | 60 ± 9% | –
15 | C[C@H](c1ccc(Nc2nc(C(F)(F)F)cs2)cc1)c1ncnn1O [Compound 15, 5-[(1R)-1-(4-{[4-(trifluoromethyl)-1,3-thiazol-2-yl]amino}phenyl)ethyl]-1H-1,2,4-triazol-1-ol] | 43 ± 1% | –
